Laboratory results: patent publication US9302991B2, “Arylamide derivatives as TTX-S blockers” (RaQualia Pharma Inc., priority 2010, dated 2016)

Key:
[1] = target: T1, human Nav1.3 channels (Homo sapiens, UniProt Q9NY46); assay: FRET assay, human Nav1.3 (EFS on FDSS); assay type: cell-based; conditions: HEK293 cells expressing human Nav1.3, read-out: IC50 against Nav1.3
T1 construct: expressed in transfected cells; host or cells: HEK293
Summary of the method: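 HEK293 cells expressing the channel, loaded with 10 microM CC2-DMPE then 15 microM DiSBAC2(3) plus 0.555 mM VABSC-1 in pH 7.4 HEPES buffer at room temperature. Membrane potential changes evoked by electrical field stimulation after compound addition; IC50 from 440 nm-normalized FRET ratios.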

[2] = target: T2, human Nav1.7 channels (Homo sapiens, UniProt Q15858); assay: FRET assay, human Nav1.7 (EFS on FDSS); assay type: cell-based; conditions: CHO cells expressing human Nav1.7, read-out: IC50 against Nav1.7
T2 construct: expressed in transfected cells; host or cells: CHO
T2 sequence (Q15858 whole entry): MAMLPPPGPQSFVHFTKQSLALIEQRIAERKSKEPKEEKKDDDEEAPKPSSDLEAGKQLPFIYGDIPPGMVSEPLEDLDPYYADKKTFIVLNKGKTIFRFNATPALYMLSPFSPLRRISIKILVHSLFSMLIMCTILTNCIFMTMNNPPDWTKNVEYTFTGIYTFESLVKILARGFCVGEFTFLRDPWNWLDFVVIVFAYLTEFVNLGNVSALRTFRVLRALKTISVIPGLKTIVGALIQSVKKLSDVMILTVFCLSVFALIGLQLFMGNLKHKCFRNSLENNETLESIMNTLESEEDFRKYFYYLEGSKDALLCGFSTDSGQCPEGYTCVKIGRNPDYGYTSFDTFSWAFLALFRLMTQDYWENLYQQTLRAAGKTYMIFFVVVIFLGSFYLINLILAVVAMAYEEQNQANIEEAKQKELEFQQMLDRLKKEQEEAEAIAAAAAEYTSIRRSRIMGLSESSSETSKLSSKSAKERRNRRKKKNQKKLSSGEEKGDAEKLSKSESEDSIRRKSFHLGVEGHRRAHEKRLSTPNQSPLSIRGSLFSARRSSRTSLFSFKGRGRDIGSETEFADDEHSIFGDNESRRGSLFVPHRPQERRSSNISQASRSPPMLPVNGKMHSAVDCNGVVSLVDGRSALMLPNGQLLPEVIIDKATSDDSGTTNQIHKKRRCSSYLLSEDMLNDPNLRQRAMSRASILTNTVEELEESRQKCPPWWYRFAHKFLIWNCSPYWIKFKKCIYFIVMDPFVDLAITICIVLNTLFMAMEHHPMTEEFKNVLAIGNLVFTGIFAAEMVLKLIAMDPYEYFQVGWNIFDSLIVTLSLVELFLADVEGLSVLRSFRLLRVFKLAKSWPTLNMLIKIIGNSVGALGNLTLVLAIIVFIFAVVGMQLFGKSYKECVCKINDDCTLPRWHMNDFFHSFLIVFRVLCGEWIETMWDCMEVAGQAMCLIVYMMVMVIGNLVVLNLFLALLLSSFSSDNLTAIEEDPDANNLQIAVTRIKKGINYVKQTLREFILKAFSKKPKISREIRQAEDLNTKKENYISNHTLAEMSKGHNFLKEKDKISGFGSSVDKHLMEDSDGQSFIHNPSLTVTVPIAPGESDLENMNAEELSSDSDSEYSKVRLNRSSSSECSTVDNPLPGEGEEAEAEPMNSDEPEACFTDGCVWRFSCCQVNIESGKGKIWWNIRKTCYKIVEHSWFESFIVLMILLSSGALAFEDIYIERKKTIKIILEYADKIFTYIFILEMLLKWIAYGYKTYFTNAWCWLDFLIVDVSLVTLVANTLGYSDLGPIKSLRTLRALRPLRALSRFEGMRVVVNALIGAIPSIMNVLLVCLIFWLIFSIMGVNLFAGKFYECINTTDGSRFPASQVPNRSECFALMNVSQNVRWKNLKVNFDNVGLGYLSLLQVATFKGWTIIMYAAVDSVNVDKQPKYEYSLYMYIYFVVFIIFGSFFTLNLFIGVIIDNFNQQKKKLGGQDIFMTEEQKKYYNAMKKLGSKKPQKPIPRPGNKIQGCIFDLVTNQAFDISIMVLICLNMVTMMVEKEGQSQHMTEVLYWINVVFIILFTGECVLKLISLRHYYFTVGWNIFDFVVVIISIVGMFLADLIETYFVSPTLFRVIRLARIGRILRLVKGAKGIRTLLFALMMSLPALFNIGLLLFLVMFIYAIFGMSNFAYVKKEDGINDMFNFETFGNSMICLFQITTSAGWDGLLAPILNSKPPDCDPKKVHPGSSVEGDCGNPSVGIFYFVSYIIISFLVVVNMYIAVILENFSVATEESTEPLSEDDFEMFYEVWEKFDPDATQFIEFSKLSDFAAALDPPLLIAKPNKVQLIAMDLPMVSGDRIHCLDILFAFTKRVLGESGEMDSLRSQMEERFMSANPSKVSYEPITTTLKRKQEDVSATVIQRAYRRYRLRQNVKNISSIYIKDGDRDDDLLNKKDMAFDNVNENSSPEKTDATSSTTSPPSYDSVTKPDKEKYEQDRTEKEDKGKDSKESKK
Summary of the method: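 CHO cells stably expressing the channel, loaded with CC2-DMPE (10 µM) then DiSBAC2(3) (15 µM) plus VABSC-1, in HEPES-buffered saline pH 7.4 at room temperature. Electrical field stimulation on FDSS; FRET ratio at 440 nm fitted for IC50.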

T1 sequence (Q9NY46 whole entry): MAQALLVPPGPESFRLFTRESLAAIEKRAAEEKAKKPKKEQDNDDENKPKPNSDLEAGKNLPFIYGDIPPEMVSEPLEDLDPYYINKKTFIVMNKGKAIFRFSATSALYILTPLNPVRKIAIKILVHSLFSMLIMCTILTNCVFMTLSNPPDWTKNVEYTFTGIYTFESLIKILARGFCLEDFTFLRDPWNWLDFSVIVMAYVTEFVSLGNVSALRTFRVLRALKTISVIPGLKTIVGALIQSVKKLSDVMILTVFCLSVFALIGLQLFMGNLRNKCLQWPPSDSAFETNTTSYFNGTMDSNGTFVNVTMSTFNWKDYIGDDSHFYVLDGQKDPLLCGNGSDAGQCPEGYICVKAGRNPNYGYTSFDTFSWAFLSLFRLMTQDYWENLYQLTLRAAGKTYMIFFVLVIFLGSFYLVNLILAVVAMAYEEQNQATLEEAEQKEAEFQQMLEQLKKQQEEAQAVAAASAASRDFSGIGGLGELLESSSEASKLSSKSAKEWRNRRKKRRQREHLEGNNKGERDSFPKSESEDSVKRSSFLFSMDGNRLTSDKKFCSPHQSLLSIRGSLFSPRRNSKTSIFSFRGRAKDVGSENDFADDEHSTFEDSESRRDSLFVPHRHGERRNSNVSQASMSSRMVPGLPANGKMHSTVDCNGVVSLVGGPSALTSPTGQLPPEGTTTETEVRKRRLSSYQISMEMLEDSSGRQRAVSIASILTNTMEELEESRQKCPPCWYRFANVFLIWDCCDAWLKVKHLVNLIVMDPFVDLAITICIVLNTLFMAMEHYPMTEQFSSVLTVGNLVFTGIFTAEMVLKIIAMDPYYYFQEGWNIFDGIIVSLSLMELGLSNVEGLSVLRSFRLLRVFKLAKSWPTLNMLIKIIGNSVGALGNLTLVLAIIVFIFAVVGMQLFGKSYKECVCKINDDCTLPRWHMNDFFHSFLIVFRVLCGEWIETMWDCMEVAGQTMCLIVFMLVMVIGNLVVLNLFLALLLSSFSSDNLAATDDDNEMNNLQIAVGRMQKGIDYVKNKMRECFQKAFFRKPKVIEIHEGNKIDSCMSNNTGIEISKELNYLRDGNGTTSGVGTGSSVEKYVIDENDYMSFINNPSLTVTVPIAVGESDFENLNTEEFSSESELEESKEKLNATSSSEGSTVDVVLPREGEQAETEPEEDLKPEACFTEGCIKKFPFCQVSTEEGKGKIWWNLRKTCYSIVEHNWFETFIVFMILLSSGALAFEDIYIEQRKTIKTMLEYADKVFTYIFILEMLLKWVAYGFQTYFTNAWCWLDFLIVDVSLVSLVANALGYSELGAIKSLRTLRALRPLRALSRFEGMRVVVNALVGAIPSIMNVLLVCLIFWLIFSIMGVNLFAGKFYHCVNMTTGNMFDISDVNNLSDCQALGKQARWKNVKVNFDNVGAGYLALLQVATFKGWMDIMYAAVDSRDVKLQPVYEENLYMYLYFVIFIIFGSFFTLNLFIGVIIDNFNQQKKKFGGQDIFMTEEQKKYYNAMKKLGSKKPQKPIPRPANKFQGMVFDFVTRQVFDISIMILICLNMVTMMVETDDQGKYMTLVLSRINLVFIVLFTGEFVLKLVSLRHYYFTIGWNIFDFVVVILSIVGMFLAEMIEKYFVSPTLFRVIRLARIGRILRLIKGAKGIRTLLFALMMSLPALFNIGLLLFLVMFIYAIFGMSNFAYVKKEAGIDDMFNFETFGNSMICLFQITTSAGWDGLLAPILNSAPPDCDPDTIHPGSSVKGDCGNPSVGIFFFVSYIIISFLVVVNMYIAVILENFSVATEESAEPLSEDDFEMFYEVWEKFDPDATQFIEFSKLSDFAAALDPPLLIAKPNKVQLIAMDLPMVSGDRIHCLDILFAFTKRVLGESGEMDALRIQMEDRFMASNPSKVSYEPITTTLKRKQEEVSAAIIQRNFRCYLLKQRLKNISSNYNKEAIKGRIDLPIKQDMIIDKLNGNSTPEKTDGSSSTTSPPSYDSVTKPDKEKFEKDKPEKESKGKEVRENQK

| IC50 [1] [nM] | IC50 [2] [nM] | SMILES |
| --- | --- | --- |
| < 1000 | < 1000 | CC(=O)Nc1cc(C(=O)NCc2ccc(OC(F)(F)F)c(C)c2)ccn1 [Example 804, 2-acetamido-N-(3-methyl-4-(trifluoromethoxy)benzyl)isonicotinamide] |
| < 1000 | < 1000 | Cc1cc(C(=O)NCc2cnc(OCC(F)(F)C(F)F)c(C)c2)cc(NC(=O)C2CC2)n1 [Example 946, 2-(cyclopropanecarboxamido)-6-methyl-N-((5-methyl-6-(2,2,3,3-tetrafluoropropoxy)pyridin-3-yl)methyl)isonicotinamide] |
| < 1000 | < 1000 | CCC(=O)Nc1cc(C(=O)NCc2cc(C(F)(F)F)ccc2F)cc(C)n1 [Example 128, N-(2-fluoro-5-(trifluoromethyl)benzyl)-2-methyl-6-propionamidoisonicotinamide] |
| < 1000 | < 1000 | Cc1cc(CNC(=O)c2ccnc(NC(=O)C3CC3)c2)cnc1OCC(F)(F)F [Example 369, 2-(cyclopropanecarboxamido)-N-((5-methyl-6-(2,2,2-trifluoroethoxy)pyridin-3-yl)methyl)isonicotinamide] |
| < 1000 | < 1000 | CC(C)C(=O)Nc1cc(C(=O)NC(C)c2ccc(OCC(F)(F)F)nc2)ccn1 (single isomer, unassigned) [Example 8, 2-isobutyramido-N-(1-(6-(2,2,2-trifluoroethoxy)pyridin-3-yl)ethyl)isonicotinamide] |
| < 1000 | < 1000 | CCC(=O)Nc1cc(C(=O)NCc2cnc(OCC(F)(F)C(F)F)c(C)c2)ccn1 [Example 940, N-((5-methyl-6-(2,2,3,3-tetrafluoropropoxy)pyridin-3-yl)methyl)-2-propionamidoisonicotinamide] |
| < 1000 | < 1000 | Cc1cc(C(C)NC(=O)c2ccnc(NC(=O)C3CC3)n2)cnc1OCC(F)F (single isomer, unassigned) [Example 558, 2-(cyclopropanecarboxamido)-N-(1-(6-(2,2-difluoroethoxy)-5-methylpyridin-3-yl)ethyl)pyrimidine-4-carboxamide] |
| < 1000 | < 1000 | Cc1cc(C(=O)NC(C)c2cnc(OCC(F)(F)F)c(C)c2)nc(Nc2ncco2)n1 (single isomer, unassigned) [Example 456, 6-methyl-N-(1-(5-methyl-6-(2,2,2-trifluoroethoxy)pyridin-3-yl)ethyl)-2-(oxazol-2-ylamino)pyrimidine-4-carboxamide] |
| < 1000 | < 1000 | CCC(=O)Nc1cc(C(=O)N[C@H](C)c2cccc(C(F)(F)F)c2)cc(C)n1 (single isomer, unassigned) [Example 126] |
| < 1000 | < 1000 | Cc1cc(C(=O)NCc2cccc(OC(F)(F)F)c2)cc(NC(=O)C2CC2)n1 [Example 836, 2-(cyclopropanecarboxamido)-6-methyl-N-(3-(trifluoromethoxy)benzyl)isonicotinamide] |
| < 1000 | < 1000 | Cc1cc(C(C)NC(=O)c2ccnc(NC(=O)C3CC3)n2)cnc1OCC(F)(F)C(F)F (single isomer, unassigned) [Example 906, 2-(cyclopropanecarboxamido)-N-(1-(5-methyl-6-(2,2,3,3-tetrafluoropropoxy)pyridin-3-yl)ethyl)pyrimidine-4-carboxamide] |
| < 1000 | < 1000 | CCC(=O)Nc1nc(C)cc(C(=O)NCc2ccc(OCC(F)(F)F)nc2OC)n1 [Example 180, N-((2-methoxy-6-(2,2,2-trifluoroethoxy)pyridin-3-yl)methyl)-6-methyl-2-propionamidopyrimidine-4-carboxamide] |
| < 1000 | < 1000 | CCC(=O)Nc1cc(C(=O)NC(C)c2ccc(OCC(F)(F)F)c(Cl)c2)cc(C)n1 (single isomer, unassigned) [Example 677, N-(1-(3-chloro-4-(2,2,2-trifluoroethoxy)phenyl)ethyl)-2-methyl-6-propionamidoisonicotinamide] |
